Where two headings read alike, the source gives them in different places.
Columns and labels:
[1] = molecular target: rat orexin 1 receptor (Rattus norvegicus, UniProt P56718); assay: Rat orexin 1 receptor radioligand binding; settings: read-out: rOX1 Ki
Protocol: (§1) Rat and Human Orexin 1 Receptor Radioligand Binding Studies
(§2) After centrifugation (2K×G, 5 min at 4° C.), the supernatant was aspirated and the pellets frozen and stored at −80° C. […] Each cell pellet from a 15 cm plate was resuspended in 10 mL, stored on ice, and homogenized for 45 sec prior to addition to the reactions. […] The final concentration of DMSO in the reactions is equal to or less than 0.1%. Total and nonspecific binding was determined in the absence and presence of 10 μM almorexant. The total volume of each reaction is 200 μL (20 μL of diluted compounds, 80 μL of [^3H]-(1-(5-(2-fluoro-phenyl)-2-methyl-thiazol-4-yl)-1-((S)-2-(5-phenyl-(1,3,4)oxadiazol-2-ylmethyl)-pyrrolidin-1-yl)-methanone) diluted in PBS and 100 μL of the cell suspension). […] The plates were washed 3 times by aspirating 30 ml PBS through the plates. Plates were dried in 55° C. oven for 60 min, scintillation fluid was added, and the radioactivity was counted on a Topcount (Packard).

[2] = molecular target: human orexin 2 receptor (Homo sapiens (Human), UniProt O43614); assay: Human orexin 2 receptor radioligand binding; settings: read-out: hOX2 Ki
Sequence of human orexin 2 receptor (O43614 whole entry): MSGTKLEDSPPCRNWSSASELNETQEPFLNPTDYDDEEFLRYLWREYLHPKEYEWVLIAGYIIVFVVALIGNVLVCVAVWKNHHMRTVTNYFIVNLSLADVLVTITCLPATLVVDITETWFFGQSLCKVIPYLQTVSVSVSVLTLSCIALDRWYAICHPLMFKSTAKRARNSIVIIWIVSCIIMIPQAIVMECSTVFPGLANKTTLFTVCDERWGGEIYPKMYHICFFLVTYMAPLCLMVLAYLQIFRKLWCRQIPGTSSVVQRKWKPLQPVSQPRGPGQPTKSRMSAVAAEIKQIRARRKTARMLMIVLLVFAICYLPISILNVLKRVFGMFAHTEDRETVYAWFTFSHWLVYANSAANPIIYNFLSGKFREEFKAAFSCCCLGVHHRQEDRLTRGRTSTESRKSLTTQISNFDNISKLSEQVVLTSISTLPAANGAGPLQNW
Protocol: Human Orexin 2 Receptor Radioligand Binding Studies
as §2, with “sec just” for “sec”, “reactions. Competition binding experiments in 96 well polypropylene plates were performed using [^3H]-EMPA (Moraveck Corporation, specific activity=29.6 Ci/mmol), diluted to a 5 nM concentration in PBS (2 nM final concentration).” for “reactions.”, “[^3H]-EMPA” for “[^3H]-(1-(5-(2-fluoro-phenyl)-2-methyl-thiazol-4-yl)-1-((S)-2-(5-phenyl-(1,3,4)oxadiazol-2-ylmethyl)-pyrrolidin-1-yl)-methanone)”

[3] = molecular target: human orexin 1 receptor (Homo sapiens, UniProt O43613); assay: Human orexin 1 receptor radioligand binding; settings: read-out: hOX1 Ki
Protocol: as §1, §2

[4] = HEK293 cells stably expressing rat orexin 1 receptor, competitive radioligand binding, apparent Ki
[5] = HEK293 stably expressing human orexin 2 receptor, [3H]-EMPA competitive binding, apparent Ki
[6] = CHO cells stably expressing human orexin 1 receptor, competitive radioligand binding, apparent Ki

Compound	Ki [1, 4]	Ki [2, 5]	Ki [3, 6]	Ki [1]	Ki [2]	Ki [3]
CCOc1ccc(C)nc1C(=O)N1C[C@H]2C[C@@H](Oc3ccc(C(F)(F)F)cn3)[C@@H]1C2 [Example 37, (3-ethoxy-6-methylpyridin-2-yl)((1S,4R,6R)-6-((5-(trifluoromethyl)pyridin-2-yl)oxy)-2-azabicyclo[2.2.1]heptan-2-yl)methanone]	170 nM	1800 nM	265 nM	–	–	–
O=C(c1cc(F)ccc1-c1ncccn1)N1C[C@H]2C[C@@H](Nc3ccc(C(F)(F)F)cn3)[C@@H]1C2 [Example 58, (5-fluoro-2-(pyrimidin-2-yl)phenyl)((1S,4S,6R)-6-((5-(trifluoromethyl)pyridin-2-yl)amino)-2-azabicyclo[2.2.1]heptan-2-yl)methanone]	4 nM	181 nM	2 nM	–	–	–
O=C(c1ccccc1-n1nccn1)N1C[C@H]2C[C@@H](Oc3ccc(Br)cn3)[C@@H]1C2 [Example 49, (2-(2H-1,2,3-triazol-2-yl)phenyl)((1S,4R,6R)-6-((5-bromopyridin-2-yl)oxy)-2-azabicyclo[2.2.1]heptan-2-yl)methanone]	6 nM	507 nM	6 nM	–	–	–
CCOc1ccc2cccnc2c1C(=O)N1C[C@H]2C[C@@H](Nc3ccc(C(F)(F)F)cn3)[C@@H]1C2 [Example 56, (7-ethoxyquinolin-8-yl)((1S,4S,6R)-6-((5-(trifluoromethyl)pyridin-2-yl)amino)-2-azabicyclo[2.2.1]heptan-2-yl)methanone]	8 nM	192 nM	10 nM	–	–	–
O=C(c1ncccc1-n1nccn1)N1C[C@H]2C[C@@H](Oc3ccc(C(F)(F)F)cn3)[C@@H]1C2 [Example 30, (3-(2H-1,2,3-triazol-2-yl)pyridin-2-yl)((1S,4R,6R)-6-((5-(trifluoromethyl)pyridin-2-yl)oxy)-2-azabicyclo[2.2.1]heptan-2-yl)methanone]	19 nM	1700 nM	22 nM	–	–	–
COc1cccc(-c2ncccn2)c1C(=O)N1C[C@H]2C[C@@H](Oc3ccc(C(F)(F)F)cn3)[C@@H]1C2 [Example 40, (2-methoxy-6-(pyrimidin-2-yl)phenyl)((1S,4R,6R)-6-((5-(trifluoromethyl)pyridin-2-yl)oxy)-2-azabicyclo[2.2.1]heptan-2-yl)methanone]	16 nM	340 nM	9 nM	–	–	–
Cc1ccc(-n2nccn2)c(C(=O)N2CC3CC(Oc4cnc(C(F)(F)F)cn4)C2C3)n1 (racemic) [Example 2, (R/S)-(6-methyl-3-(2H-1,2,3-triazol-2-yl)pyridin-2-yl)(6-((5-(trifluoromethyl)pyrazin-2-yl)oxy)-2-azabicyclo[2.2.1]heptan-2-yl)methanone]	200 nM	10000 nM	342 nM	–	–	–
COc1ccc(C(=O)N2CC3CC(Oc4ccc(C(F)(F)F)cn4)C2C3)c(-n2nccn2)c1 (racemic) [Example 13]	52 nM	> 10000 nM	109 nM	–	–	–
O=C(c1ccccc1-n1nccn1)N1C[C@H]2C[C@@H](Nc3cnc(C(F)(F)F)cn3)[C@@H]1C2 [Example 59, (2-(2H-1,2,3-triazol-2-yl)phenyl)((1S,4S,6R)-6-((5-(trifluoromethyl)pyrazin-2-yl)amino)-2-azabicyclo[2.2.1]heptan-2-yl)methanone]	6 nM	213 nM	9 nM	–	–	–
Cc1ccc(-n2nccn2)c(C(=O)N2C[C@H]3C[C@@H](Oc4ccc(Br)cn4)[C@@H]2C3)n1 [Example 50, ((1S,4R,6R)-6-((5-bromopyridin-2-yl)oxy)-2-azabicyclo[2.2.1]heptan-2-yl)(6-methyl-3-(2H-1,2,3-triazol-2-yl)pyridin-2-yl)methanone]	7 nM	670 nM	9 nM	–	–	–
Cc1ccc(-n2nccn2)c(C(=O)N2C[C@H]3C[C@@H](Nc4ccc(C(F)(F)F)cn4)[C@@H]2C3)n1 [Example 54, (6-methyl-3-(2H-1,2,3-triazol-2-yl)pyridin-2-yl)((1S,4S,6R)-6-((5-(trifluoromethyl)pyridin-2-yl)amino)-2-azabicyclo[2.2.1]heptan-2-yl)methanone]	–	–	–	5 nM	132 nM	6 nM
O=C(c1cc(F)ccc1-n1nccn1)N1C[C@H]2C[C@@H](Nc3ccc(C(F)(F)F)cn3)[C@@H]1C2 [Example 57, (5-fluoro-2-(2H-1,2,3-triazol-2-yl)phenyl)((1S,4S,6R)-6-((5-(trifluoromethyl)pyridin-2-yl)amino)-2-azabicyclo[2.2.1]heptan-2-yl)methanone]	6 nM	252 nM	5 nM	–	–	–
Cc1ccc(C(=O)N2C[C@H]3C[C@@H](Oc4ccc(C(F)(F)F)cn4)[C@@H]2C3)c(-n2ccnn2)n1 [Example 34, (6-methyl-2-(1H-1,2,3-triazol-1-yl)pyridin-3-yl)((1S,4R,6R)-6-((5-(trifluoromethyl)pyridin-2-yl)oxy)-2-azabicyclo[2.2.1]heptan-2-yl)methanone]	117 nM	1100 nM	462 nM	–	–	–
Cc1cccc(C(=O)N2C[C@H]3C[C@@H](Nc4ccc(C(F)(F)F)cn4)[C@@H]2C3)c1-n1nccn1 [Example 55, (3-methyl-2-(2H-1,2,3-triazol-2-yl)phenyl)((1S,4S,6R)-6-((5-(trifluoromethyl)pyridin-2-yl)amino)-2-azabicyclo[2.2.1]heptan-2-yl)methanone]	3 nM	46 nM	3 nM	–	–	–
CCOc1ncc2ccccc2c1C(=O)N1CC2CC(Oc3cnc(C(F)(F)F)cn3)C1C2 (racemic) [Example 3]	63 nM	8900 nM	123 nM	–	–	–

Continued, in another order:

Ki [1, 4]	Ki [2, 5]	Ki [3, 6]	Compound	Ki [1]	Ki [2]	Ki [3]
60 nM	1500 nM	55 nM	O=C(c1cccc(F)c1Br)N1C[C@H]2C[C@@H](Oc3ccc(C(F)(F)F)cn3)[C@@H]1C2 [Example 45, (2-bromo-3-fluorophenyl)((1S,4R,6R)-6-((5-(trifluoromethyl)pyridin-2-yl)oxy)-2-azabicyclo[2.2.1]heptan-2-yl)methanone]	–	–	–
55 nM	> 10000 nM	47 nM	Cc1ccc(C(=O)N2C[C@H]3C[C@@H](Oc4ccc(C(F)(F)F)cn4)[C@@H]2C3)c(-n2nccn2)n1 [Example 29, (6-methyl-2-(2H-1,2,3-triazol-2-yl)pyridin-3-yl)((1S,4R,6R)-6-((5-(trifluoromethyl)pyridin-2-yl)oxy)-2-azabicyclo[2.2.1]heptan-2-yl)methanone]	–	–	–
22 nM	2200 nM	42 nM	O=C(c1ccc(F)cc1-n1nccn1)N1C[C@H]2C[C@@H](Oc3ccc(C(F)(F)F)cn3)[C@@H]1C2 [Example 44, (4-fluoro-2-(2H-1,2,3-triazol-2-yl)phenyl)((1S,4R,6R)-6-((5-(trifluoromethyl)pyridin-2-yl)oxy)-2-azabicyclo[2.2.1]heptan-2-yl)methanone]	–	–	–
18 nM	526 nM	27 nM	CCOc1ccc2cccnc2c1C(=O)N1CC2CC(Oc3ccc(C(F)(F)F)cn3)C1C2 (racemic) [Example 10, (R/S)-(7-ethoxyquinolin-8-yl)(6-((5-(trifluoromethyl)pyridin-2-yl)oxy)-2-azabicyclo[2.2.1]heptan-2-yl)methanone]	–	–	–
132 nM	108 nM	17 nM	COc1cccc(-c2ccn[nH]2)c1C(=O)N1C[C@H]2C[C@@H](Oc3ccc(C(F)(F)F)cn3)[C@@H]1C2 [Example 39, (2-methoxy-6-(1H-pyrazol-5-yl)phenyl)((1S,4R,6R)-6-((5-(trifluoromethyl)pyridin-2-yl)oxy)-2-azabicyclo[2.2.1]heptan-2-yl)methanone]	–	–	–
18 nM	945 nM	9 nM	O=C(c1cc(F)ccc1-c1ncccn1)N1CC2CC(Oc3ccc(C(F)(F)F)cn3)C1C2 (racemic) [Example 19, (R/S)-(5-fluoro-2-(pyrimidin-2-yl)phenyl)(6-((5-(trifluoromethyl)pyridin-2-yl)oxy)-2-azabicyclo[2.2.1]heptan-2-yl)methanone]	–	–	–
184 nM	5800 nM	175 nM	O=C(c1cccc2cc[nH]c12)N1C[C@H]2C[C@@H](Oc3ccc(C(F)(F)F)cn3)[C@@H]1C2 [Example 42, (1H-indol-7-yl)((1S,4R,6R)-6-((5-(trifluoromethyl)pyridin-2-yl)oxy)-2-azabicyclo[2.2.1]heptan-2-yl)methanone]	–	–	–

From patent publication US8969352B2, “Substituted 2-azabicycles and their use as orexin receptor modulators” (Janssen Pharmaceutica NV, priority 2013, dated 2015)
